# Reference: US20220202841A1, “DERMATOLOGICAL FORMULATIONS FOR TREATMENT OF DERMATITIS” (priority 2020, published 2022)
# Test system: moderate to severe papular pustular rosacea with perioral dermatitis
# Assay: Treatment of a subject with the formulation, clinical examination after 1 month
# Format: in vivo, human
# Details: same subject, treatment history before the formulation, as reported at first visit
# Source text: The lesions consisted of papules and pimples, was severe in severity, and had been present for months. […] The subject was having a bad “acne” flare up, and stated that their face was itchy and red. The subject had been treated for “acne” for a long time.
# The subject was diagnosed with moderate to severe papular pustular rosacea with perioral dermatitis.
# The subject was given the formulation of Example 1, and the subject administered it twice daily (AM and PM) and was seen again 1 month later, at which time their condition had improved. The subject's condition at this later examination was recorded in the images in FIGS. 2A to 2C.
smiles,measurement,value
CC1=C(/C=C/C(C)=C/C=C/C(C)=C/C(=O)O)C(C)(C)CCC1 [tretinoin],"improvement of ""acne"" lesions with previously tried treatment",no improvement
